One series concerns ZEAMX: corn (Zea mays). Put plainly: Post-Emergent Test I herbicidal activity. Format: in vivo. In outline: (§1)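 Post-emergence foliar application to young greenhouse plants at 187 L/ha, five rates down to 1/16× of the top rate. Percent injury is assessed visually two weeks later against untreated plants.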
In series [1] the test system is ORYSA: rice (Oryza sativa). Put plainly: Post-Emergent Test I herbicidal activity. It counts as in vivo. The settings on record: post-emergence, 336 h, Table 3, 140 g ai/ha, read-out: Visual Growth Reduction (%)-14 Days after Application ORYSA. In outline: (§2)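 Visual injury ratings (0 = none, 100 = complete kill) taken 14 d after treatment, compared with untreated plants, feed probit-derived GR20/GR50/GR80. Application: overhead spray, 187 L/ha, highest rate and ½×-1/16× dilutions in acetone-DMSO-based aqueous spray mix with crop oil and surfactant, onto plants grown 7-21 d to first or second true leaf.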

Series [2] has as its system CYPES: yellow nutsedge (Cyperus esculentus). The series is described as follows: Post-Emergent Test I herbicidal activity. The settings on record: post-emergence, 336 h, Table 3, 140 g ai/ha, read-out: Visual Growth Reduction (%)-14 Days after Application CYPES. It counts as in vivo. An outline of the steps:
as §1

Series [3] deals with EPHHL: wild poinsettia (Euphorbia heterophylla). The series is described as follows: Post-Emergent Test I herbicidal activity. The settings on record: post-emergence, 336 h, Table 3, 140 g ai/ha, read-out: Visual Growth Reduction (%)-14 Days after Application EPHHL. It counts as in vivo. An outline of the steps:
as §1

For series [4], the system named is ABUTH: velvetleaf (Abutilon theophrasti). Put plainly: Post-Emergent Test I herbicidal activity. It counts as in vivo. In outline: as §1
Series [5] relates to ECHCG: barnyardgrass (Echinochloa crus-galli). Put plainly: Post-Emergent Test I herbicidal activity. It counts as in vivo. The settings on record: post-emergence, 336 h, Table 3, 140 g ai/ha, read-out: Visual Growth Reduction (%)-14 Days after Application ECHCG. In outline:
as §2

For series [6], the system named is CHEAL: lambsquarters (Chenopodium album). The series is described as follows: Post-Emergent Test I herbicidal activity. It counts as in vivo. The settings on record: for pest or weed control at 140 g/ha: Table 3, 140 g ai/ha. In outline:
as §1

Where [7] appears, read: Zea mays, post-emergence, 336 h, Table 3, 140 g ai/ha, read-out: Visual Growth Reduction (%)-14 Days after Application ZEAMX.
The mark [8] stands for this setting: Abutilon theophrasti, post-emergence, 336 h, Table 3, 140 g ai/ha, read-out: Visual Growth Reduction (%)-14 Days after Application ABUTH.
The mark [9] stands for this setting: Chenopodium album, post-emergence, 336 h, read-out: Visual Growth Reduction (%)-14 Days after Application CHEAL.
The mark [10] stands for this setting: Table 4, growth reduction of 20% of plant growth, 14 days after application, probit analysis.
[11] abbreviates: Table 4, growth reduction of 50% of plant growth, 14 days after application, probit analysis.
The mark [12] stands for this setting: Table 4, growth reduction of 80% of plant growth, 14 days after application, probit analysis.

Molecules are shown by their SMILES. Where two headings read alike, the source gives them in different places.

For `COC(=O)c1nc(-c2ccc(Cl)c(OC)c2F)c(F)c(N)c1OC` [Compound 34], the melting point is 133.5 to 135.5 °C. Further, the pest or weed control at 140 g/ha in the series on ZEAMX: corn (Zea mays) (setting [7]) stood at 90%. For the same molecule, the pest or weed control at 140 g/ha in series [1] amounted to 10%. For the same molecule, the pest or weed control at 140 g/ha in series [2] was 100%. In series [3], the pest or weed control at 140 g/ha came out at 100%. The pest or weed control at 140 g/ha in series [4] (setting [8]) came to 100%. Moreover, in series [5], the pest or weed control at 140 g/ha was found to be 100%. In addition, the pest or weed control at 140 g/ha in series [6] (setting [9]) amounted to 100%.

The molecule `COc1c(C(=O)O)nc(-c2ccc(Cl)c(OC)c2F)c(F)c1N` [Compound 45, 4-amino-6-(4-chloro-2-fluoro-3-methoxyphenyl)-5-fluoro-3-methoxypicolinic acid] registered a melting point of 143 to 146 °C. Also, the “GR20 ZEAMX” value in the series on ZEAMX: corn (Zea mays) (setting [10]) is given as below 8.75 g ai/ha. Further, the “GR50 ZEAMX” value in the series on ZEAMX: corn (Zea mays) (setting [11]) was found to be 12.4 g ai/ha. In addition, the “GR80 ZEAMX” value in the series on ZEAMX: corn (Zea mays) (setting [12]) is recorded as above 140 g ai/ha. Further, the pest or weed control at 140 g/ha with ZEAMX: corn (Zea mays) (setting [7]) worked out at 65%. Besides, the pest or weed control at 8.75 g/ha in the series with ZEAMX: corn (Zea mays) (Zea mays, post-emergence, 336 h, Table 4, 8.75 g ai/ha, read-out: Visual Growth Reduction (%)-14 Days after Application ZEAMX) came out at 50%. Moreover, in the series with ZEAMX: corn (Zea mays) (Zea mays, post-emergence, 336 h, Table 4, 17.5 g ai/ha, read-out: Visual Growth Reduction (%)-14 Days after Application ZEAMX), the pest or weed control at 17.5 g/ha amounted to 50%. For the same molecule, the pest or weed control at 35 g/ha with ZEAMX: corn (Zea mays) (Zea mays, post-emergence, 336 h, Table 4, 35 g ai/ha, read-out: Visual Growth Reduction (%)-14 Days after Application ZEAMX) stood at 55%. The pest or weed control at 70 g/ha in the series on ZEAMX: corn (Zea mays) (Zea mays, post-emergence, 336 h, Table 4, 70 g ai/ha, read-out: Visual Growth Reduction (%)-14 Days after Application ZEAMX) came to 60%. Further, the pest or weed control at 140 g/ha in the series on ZEAMX: corn (Zea mays) (Zea mays, post-emergence, 336 h, Table 4, 140 g ai/ha, read-out: Visual Growth Reduction (%)-14 Days after Application ZEAMX) is 65%. The pest or weed control at 140 g/ha in series [1] worked out at 0%. Further, in series [2], the pest or weed control at 140 g/ha was determined as 100%. The pest or weed control at 140 g/ha in series [3] came out at 100%. Also, the pest or weed control at 140 g/ha in series [4] (setting [8]) came to 100%. Besides, the pest or weed control at 8.75 g/ha in series [4] (Abutilon theophrasti, post-emergence, 336 h, Table 4, 8.75 g ai/ha, read-out: Visual Growth Reduction (%)-14 Days after Application ABUTH) stood at 90%. The pest or weed control at 17.5 g/ha in series [4] (Abutilon theophrasti, post-emergence, 336 h, Table 4, 17.5 g ai/ha, read-out: Visual Growth Reduction (%)-14 Days after Application ABUTH) amounted to 100%. Also, in series [4] (Abutilon theophrasti, post-emergence, 336 h, Table 4, 35 g ai/ha, read-out: Visual Growth Reduction (%)-14 Days after Application ABUTH), the pest or weed control at 35 g/ha was determined as 100%. In addition, the pest or weed control at 70 g/ha in series [4] (Abutilon theophrasti, post-emergence, 336 h, Table 4, 70 g ai/ha, read-out: Visual Growth Reduction (%)-14 Days after Application ABUTH) was found to be 100%. For the same molecule, the pest or weed control at 140 g/ha in series [4] (Abutilon theophrasti, post-emergence, 336 h, Table 4, 140 g ai/ha, read-out: Visual Growth Reduction (%)-14 Days after Application ABUTH) is 100%. Moreover, the “GR20 ABUTH” value in series [4] (setting [10]) is below 8.75 g ai/ha. Further, the “GR50 ABUTH” value in series [4] (setting [11]) was below 8.75 g ai/ha. The “GR80 ABUTH” value in series [4] (setting [12]) is on record as below 8.75 g ai/ha. For the same molecule, the pest or weed control at 140 g/ha in series [5] came to 100%. In addition, in series [6] (setting [9]), the pest or weed control at 140 g/ha was determined as 100%. The pest or weed control at 8.75 g/ha in series [6] (Chenopodium album, post-emergence, 336 h, Table 4, 8.75 g ai/ha, read-out: Visual Growth Reduction (%)-14 Days after Application CHEAL) was determined as 90%. Further, the pest or weed control at 17.5 g/ha in series [6] (Chenopodium album, post-emergence, 336 h, Table 4, 17.5 g ai/ha, read-out: Visual Growth Reduction (%)-14 Days after Application CHEAL) worked out at 100%. Also, the pest or weed control at 35 g/ha in series [6] (Chenopodium album, post-emergence, 336 h, Table 4, 35 g ai/ha, read-out: Visual Growth Reduction (%)-14 Days after Application CHEAL) is 100%. Besides, the pest or weed control at 70 g/ha in series [6] (Chenopodium album, post-emergence, 336 h, Table 4, 70 g ai/ha, read-out: Visual Growth Reduction (%)-14 Days after Application CHEAL) was determined as 100%. In series [6] (Table 4, 140 g ai/ha), the “Visual Growth Reduction (%)-14 Days after Application CHEAL” value came out at 100%. Also, the “GR20 CHEAL” value in series [6] (setting [10]) is reported as below 8.75 g ai/ha. The “GR50 CHEAL” value in series [6] (setting [11]) is recorded as below 8.75 g ai/ha. Also, the “GR80 CHEAL” value in series [6] (setting [12]) is below 8.75 g ai/ha.
